Values of other authors, collected in patent US10335452B2, “Method of treating patients with hepatorenal syndrome type 1” (Mallinckrodt Hospital Products IP Limited, priority 2014, dated 2019).
Positions of bridges follow the written chain, without caps; N, C: chain ends. Residues, ends and D or L forms follow the SMILES beside them.

Assays:
[1] = in vivo
HRS-1 patients = conditions: each listed reaction occurred in more than this share of patients

Structure (SMILES) | duration of action [1] [min] | Adverse reaction, share of patients (vomiting, abdominal pain, nausea, diarrhea, intestinal ischemia, dyspnea, sneezing, pulmonary edema and fluid overload) (HRS-1 patients)
NC(=O)CC[C@@H]1NC(=O)[C@H](Cc2ccccc2)NC(=O)[C@H](Cc2ccc(O)cc2)NC(=O)[C@@H](N)CSSC[C@@H](C(=O)N2CCC[C@H]2C(=O)N[C@@H](CCCN=C(N)N)C(=O)NCC(N)=O)NC(=O)[C@H](CC(N)=O)NC1=O [vasopressin] | 30 to 60 | –
NCCCC[C@H](NC(=O)[C@@H]1CCCN1C(=O)[C@@H]1CSSC[C@H](NC(=O)CNC(=O)CNC(=O)CN)C(=O)N[C@@H](Cc2ccc(O)cc2)C(=O)N[C@@H](Cc2ccccc2)C(=O)N[C@@H](CCC(N)=O)C(=O)N[C@@H](CC(N)=O)C(=O)N1)C(=O)NCC(N)=O [terlipressin, N—[N—(N-glycylglycyl)glycyl]-8-L-lysinevasopressin] (H-GGGCYFQNCPKG-NH2; disulfide 4-9 (inferred)) | 120 to 600 | more than 10%
